Laboratory results reported in the NIST ThermoML archive (doi:10.1021/je300382a).

Legend:
[1] = xn = mol fraction of the nth substance listed; details: Ring tensiometer
[2] = refractive index (Na D-line) (dimensionless); xn = mol fraction of the nth substance listed; details: 101 kPa, Liquid, Standard Abbe refractometry

CC(N)CN (stereo not given) [1,2-propanediamine] + O
Details	refractive index, 283.15 K	refractive index, 293.15 K	refractive index, 303.15 K	refractive index, 313.15 K	refractive index, 323.15 K	surface tension liquid-gas, 283.15 K [mN/m]	surface tension liquid-gas, 293.15 K [mN/m]	surface tension liquid-gas, 303.15 K [mN/m]	surface tension liquid-gas, 313.15 K [mN/m]	surface tension liquid-gas, 323.15 K [mN/m]
[1], x1 = 0.01	–	–	–	–	–	67.4	66.1	64.7	62.8	61
[1], x1 = 0.03	–	–	–	–	–	62.1	60.5	58.7	57.3	56
[1], x1 = 0.05	–	–	–	–	–	58.1	56.4	55	53.7	52.2
[1], x1 = 0.07	–	–	–	–	–	55	53.5	51.9	50.5	49.1
[1], x1 = 0.1	–	–	–	–	–	51.7	50.5	48.9	47.3	45.8
[1], x1 = 0.2	–	–	–	–	–	47.6	46.4	45	43.2	41.9
[1], x1 = 0.3	–	–	–	–	–	44.8	43.7	42.4	41	39.7
[1], x1 = 0.4	–	–	–	–	–	42.5	41.1	40.1	38.6	37.4
[1], x1 = 0.5	–	–	–	–	–	40.6	39.2	37.9	36.6	35.5
[1], x1 = 0.6	–	–	–	–	–	38.3	37.2	36.1	35.1	33.9
[1], x1 = 0.7	–	–	–	–	–	37.5	36.4	35.2	34.1	32.9
[1], x1 = 0.8	–	–	–	–	–	36.2	35.1	33.9	32.7	31.7
[1], x1 = 0.9	–	–	–	–	–	35.4	34.2	33	31.9	30.7
[1], x1 = 1	–	–	–	–	–	35	33.8	32.7	31.4	30.3
[2], x1 = 0.01	1.34	1.3392	1.3381	1.3366	1.3352	–	–	–	–	–
[2], x1 = 0.03	1.3522	1.3512	1.3499	1.3488	1.3478	–	–	–	–	–
[2], x1 = 0.05	1.3635	1.3621	1.3604	1.3592	1.3579	–	–	–	–	–
[2], x1 = 0.07	1.374	1.3723	1.3703	1.3685	1.3667	–	–	–	–	–
[2], x1 = 0.1	1.3882	1.3859	1.3835	1.3816	1.3797	–	–	–	–	–
[2], x1 = 0.2	1.4209	1.4173	1.4137	1.4111	1.4085	–	–	–	–	–
[2], x1 = 0.3	1.4356	1.4317	1.4273	1.4236	1.4208	–	–	–	–	–
[2], x1 = 0.4	1.4448	1.4405	1.4363	1.4321	1.4279	–	–	–	–	–
[2], x1 = 0.5	1.4486	1.4443	1.4401	1.4356	1.4311	–	–	–	–	–
[2], x1 = 0.6	1.4504	1.4459	1.4415	1.4369	1.4323	–	–	–	–	–
[2], x1 = 0.7	1.4511	1.4466	1.4418	1.4374	1.4325	–	–	–	–	–
[2], x1 = 0.8	1.4515	1.4468	1.442	1.4371	1.4323	–	–	–	–	–
[2], x1 = 0.9	1.4512	1.4465	1.4415	1.4368	1.4319	–	–	–	–	–
[2], x1 = 1	1.451	1.4458	1.4409	1.4362	1.4314	–	–	–	–	–

NCc1ccccc1 [benzylamine] + O
Details	refractive index, 283.15 K	refractive index, 293.15 K	refractive index, 303.15 K	refractive index, 313.15 K	refractive index, 323.15 K	surface tension liquid-gas, 283.15 K [mN/m]	surface tension liquid-gas, 293.15 K [mN/m]	surface tension liquid-gas, 303.15 K [mN/m]	surface tension liquid-gas, 313.15 K [mN/m]	surface tension liquid-gas, 323.15 K [mN/m]
[1], x1 = 0.0001	–	–	–	–	–	69.5	67.7	65.5	63.2	61.6
[1], x1 = 0.0005	–	–	–	–	–	60.4	58.1	56.1	54.3	52.3
[1], x1 = 0.001	–	–	–	–	–	54.9	53.1	50.6	48.8	47.2
[1], x1 = 0.003	–	–	–	–	–	48.6	46.1	44.3	42.6	40.1
[1], x1 = 0.006	–	–	–	–	–	42.1	40.7	39.2	37.7	36.4
[1], x1 = 0.01	–	–	–	–	–	41.4	40	38.6	37.5	36
[1], x1 = 0.03	–	–	–	–	–	39.5	38.4	37.5	36.3	35.6
[1], x1 = 0.05	–	–	–	–	–	39.3	38.3	37.5	36.3	35.5
[1], x1 = 0.07	–	–	–	–	–	38.9	38.1	37.3	36.2	35.5
[1], x1 = 0.1	–	–	–	–	–	38.7	38	37.2	36.2	35.4
[1], x1 = 0.2	–	–	–	–	–	38.6	37.8	37	36.1	35.4
[1], x1 = 0.3	–	–	–	–	–	38.4	37.5	36.9	35.9	35.2
[1], x1 = 0.4	–	–	–	–	–	38.4	37.5	36.9	35.9	35.2
[1], x1 = 0.5	–	–	–	–	–	38.3	37.6	36.8	35.9	35.2
[1], x1 = 0.6	–	–	–	–	–	38.2	37.4	36.6	35.7	35.2
[1], x1 = 0.7	–	–	–	–	–	38.1	37.3	36.5	35.8	35.1
[1], x1 = 0.8	–	–	–	–	–	38.1	37.3	36.5	35.8	35.1
[1], x1 = 0.9	–	–	–	–	–	38	37.2	36.4	35.7	35.1
[1], x1 = 1	–	–	–	–	–	37.9	37.1	36.3	35.6	35
[2], x1 = 0.0001	1.3338	1.3331	1.3321	1.331	1.3298	–	–	–	–	–
[2], x1 = 0.0005	1.3344	1.3337	1.3326	1.3312	1.3297	–	–	–	–	–
[2], x1 = 0.001	1.3351	1.3343	1.3333	1.3318	1.3303	–	–	–	–	–
[2], x1 = 0.003	1.3376	1.3368	1.3357	1.3342	1.3327	–	–	–	–	–
[2], x1 = 0.006	1.3411	1.3403	1.3392	1.3376	1.3361	–	–	–	–	–
[2], x1 = 0.01	1.3461	1.3449	1.3441	1.3423	1.3405	–	–	–	–	–
[2], x1 = 0.03	1.3683	1.367	1.3654	1.3634	1.3614	–	–	–	–	–
[2], x1 = 0.05	1.387	1.3853	1.3834	1.381	1.3787	–	–	–	–	–
[2], x1 = 0.07	1.4047	1.4007	1.3985	1.3961	1.3937	–	–	–	–	–
[2], x1 = 0.1	1.4252	1.4214	1.4183	1.4163	1.4136	–	–	–	–	–
[2], x1 = 0.2	1.468	1.4648	1.4614	1.4592	1.4569	–	–	–	–	–
[2], x1 = 0.3	1.4957	1.4918	1.4879	1.4848	1.4818	–	–	–	–	–
[2], x1 = 0.4	1.5143	1.5097	1.5057	1.5024	1.4985	–	–	–	–	–
[2], x1 = 0.5	1.5263	1.5218	1.5172	1.5129	1.5084	–	–	–	–	–
[2], x1 = 0.6	1.5343	1.5296	1.5252	1.5202	1.5159	–	–	–	–	–
[2], x1 = 0.7	1.5399	1.5355	1.5307	1.5259	1.5211	–	–	–	–	–
[2], x1 = 0.8	1.5447	1.5397	1.5344	1.5296	1.5247	–	–	–	–	–
[2], x1 = 0.9	1.5491	1.5429	1.5375	1.5319	1.527	–	–	–	–	–
[2], x1 = 1	1.5516	1.5445	1.5393	1.5328	1.5279	–	–	–	–	–
